In the RepoRT retention time repository:

assay: RP, Advanced Chromatography Technologies ACE C18, 50 × 2.1 mm, 3 µm; A: water + 10 mM ammonium acetate; B: acetonitrile; gradient (min/%B) 0/5 1/5 21/95; details: stereoisomer not certain

Compound	LC retention time [min]
c1ccc2scnc2c1 [Benzothiazole]	5.38
c1ccc2ncccc2c1 [Quinoline]	6.1
CC(C)COC(=O)c1ccccc1C(=O)OCC(C)C [Diisobutyl phthalate]	14
Nc1ccc([N+](=O)[O-])cc1[N+](=O)[O-] [2-4-dinitroaniline]	7.02
CC(C)(c1ccccc1)c1cc(-n2nc3ccccc3n2)c(O)c(C(C)(C)c2ccccc2)c1	19.4
Nc1c(Cl)cc([N+](=O)[O-])cc1[N+](=O)[O-] [6-chloro-2-4-dinitroaniline]	8.9
c1ccc2n[nH]nc2c1 [1-H-benzotriazole]	3.14
CC(C)(C)c1cc(-n2nc3ccc(Cl)cc3n2)c(O)c(C(C)(C)C)c1 [2-4-di-tert-butyl-6-(5-chlorobenzotriazol-2-yl)phenol]	20.7
CCC(C)(C)c1cc(-n2nc3ccccc3n2)c(O)c(C(C)(C)CC)c1 [2-(2H-benzotriazol-2-yl)-4-6-di-tert-pentylphenol]	20.8
CSc1nc2ccccc2s1 [2-methylthiobenzothiazole]	9.58
Nc1c(Br)cc([N+](=O)[O-])cc1[N+](=O)[O-] [2-bromo-4,6-dinitroaniline]	8.73
c1ccc2sc(SSc3nc4ccccc4s3)nc2c1 [2-2'-dithiobisbenzothiazole]	14.6
Cc1ccc(O)c(-n2nc3ccccc3n2)c1 [2-(benzotriazol-2-yl)-4-methylphenol]	13.3
Cc1ccc2n[nH]nc2c1 [5-Methyl-1H-benzotriazole]	4.65
Nc1c(Cl)cc([N+](=O)[O-])cc1Cl [2,6-dichloro-4-nitroaniline]	9.41
Cc1cc2n[nH]nc2cc1C [5-6-Dimethyl-2H-benzotriazole]	5.73
c1ccc2sc(SNC3CCCCC3)nc2c1 [N-cyclohexyl-2-benzothiazolesulphenamide]	13.7
